Values joined by “and” are separate entries in the source; they are usually repeats but may differ in a detail not shown here. Identical values can stand only once.

This experiment has as its system human primary preadipocytes. The experiment can be described thus: Suppression of adipogenesis in cultures of human primary preadipocytes (EC50). It counts as cell-based.
Turning to `COc1ccc2cc3[n+](cc2c1OC)CCc1cc2c(cc1-3)OCO2` [Phytonutrient C1, Berberine], the concentration for a half-maximal effect (EC50) was 10 µM and 3.5 µg/mL.

As to `O=c1cc(-c2ccc(O)c(O)c2)oc2cc(O)cc(O)c12` [Phytonutrient C2, Luteolin], the EC50 was 20 µM and 5.7 µg/mL.

For `Oc1ccc(/C=C/c2cc(O)cc(O)c2)cc1` [Phytonutrient C3, Resveratrol], the EC50 was 40 µM and 9.1 µg/mL.

`O=c1c(O)c(-c2ccc(O)c(O)c2)oc2cc(O)ccc12` [Phytonutrient C4, Fisetin]: the EC50 is 50 µM and 14.3 µg/mL.

On to `O=c1c(O)c(-c2ccc(O)c(O)c2)oc2cc(O)cc(O)c12` [Phytonutrient C5, Quercetin], for which the EC50 was 25 µM and 7.6 µg/mL.

Regarding `O=C(OC1Cc2c(O)cc(O)cc2OC1c1cc(O)c(O)c(O)c1)c1cc(O)c(O)c(O)c1` (stereo not shown) [Phytonutrient C7, Epigallocatechin Gallate (EGCG)], the EC50 is 20 µM and 9.2 µg/mL.

Consider `COc1cc(/C=C/C(=O)/C=C(O)/C=C/c2ccc(O)c(OC)c2)ccc1O` [Phytonutrient C9, Curcumin], for which the EC50 is 20 µM and 7.5 µg/mL.

The EC50 is the concentration needed to bring the measured effect to its halfway point.

The record behind these values is patent US20220378814A1, “COMPOSITION OF PHYTONUTRIENTS FOR OBESITY PREVENTION” (ROSEMAN UNIVERSITY OF HEALTH SCIENCES, priority 2021, published 2022).
